Laboratory results: publication PMC8311653, “Design, Synthesis, In Vitro and In Vivo Characterization of Selective NKCC1 Inhibitors for the Treatment of Core Symptoms in Down Syndrome” (Journal of Medicinal Chemistry, 2021)
Where two headings read alike, the source gives them in different places.

Tests used:
NKCC2 [1] = target: T1, NKCC2 (Homo sapiens, UniProt Q13621); design: method as in PMID 32818158; settings: 10 μM; cited from earlier work
T1 construct: host or cells: HEK293
T1 sequence (Q13621 1-1099): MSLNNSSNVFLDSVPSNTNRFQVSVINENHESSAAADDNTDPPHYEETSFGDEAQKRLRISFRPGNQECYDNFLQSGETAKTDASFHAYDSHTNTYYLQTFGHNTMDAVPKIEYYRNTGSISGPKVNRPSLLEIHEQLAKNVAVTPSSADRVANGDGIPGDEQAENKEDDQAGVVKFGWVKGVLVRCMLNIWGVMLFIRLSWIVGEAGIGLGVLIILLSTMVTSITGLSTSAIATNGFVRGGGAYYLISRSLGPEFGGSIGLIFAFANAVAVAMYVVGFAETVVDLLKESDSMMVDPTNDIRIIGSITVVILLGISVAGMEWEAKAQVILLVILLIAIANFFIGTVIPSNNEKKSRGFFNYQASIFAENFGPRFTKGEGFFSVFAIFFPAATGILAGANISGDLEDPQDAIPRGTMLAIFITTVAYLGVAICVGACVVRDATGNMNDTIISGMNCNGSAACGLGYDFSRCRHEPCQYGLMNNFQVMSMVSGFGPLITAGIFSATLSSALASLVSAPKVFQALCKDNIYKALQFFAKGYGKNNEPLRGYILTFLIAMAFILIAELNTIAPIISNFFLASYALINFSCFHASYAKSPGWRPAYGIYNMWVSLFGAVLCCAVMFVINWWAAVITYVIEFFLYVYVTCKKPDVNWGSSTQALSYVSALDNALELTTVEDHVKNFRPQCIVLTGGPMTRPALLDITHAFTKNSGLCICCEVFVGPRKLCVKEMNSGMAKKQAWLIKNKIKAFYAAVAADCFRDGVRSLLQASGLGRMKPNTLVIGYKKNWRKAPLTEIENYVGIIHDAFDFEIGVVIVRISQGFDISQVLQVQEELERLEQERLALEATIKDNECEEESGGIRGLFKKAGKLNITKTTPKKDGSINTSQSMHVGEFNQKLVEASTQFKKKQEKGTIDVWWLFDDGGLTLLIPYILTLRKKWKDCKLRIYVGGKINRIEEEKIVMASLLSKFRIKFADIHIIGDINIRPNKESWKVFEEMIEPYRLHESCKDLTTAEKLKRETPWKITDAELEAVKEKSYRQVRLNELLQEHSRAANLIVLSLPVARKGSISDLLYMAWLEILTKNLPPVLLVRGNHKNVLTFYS

Ts65Dn mice [2] = assay: Contextual fear-conditioning (CFC) test; type: in vivo, mouse; settings: ip 0.6 mg kg-1 daily, chronic, re-exposure 24 h after conditioning
Description: (§1) A veterinarian was employed to maintain the health and comfort of the animals. Mice were housed in filtered cages in a temperature-controlled room with a 12:12 h dark/light cycle and with ad libitum access to water and food. All efforts were made to minimize animal suffering and use the lowest possible number of animals required to produce statistical relevant results, according to the “3Rs concept”. In this study, we used Ts65Dn mice maintained in their original genetic background[57] by crossing (more than 40 times) Ts65Dn female to C57BL/6JEi × C3SnHeSnJ (B6EiC3) F1 males (Jackson Laboratories). Ts65Dn mice were genotyped by PCR as previously described.[58] Only males were used for behavioral experiments. Ts65Dn and controls were randomly assigned to vehicle groups (2% DMSO in saline), bumetanide (Sigma, 0.6 mg kg^–1 body weight), or 40 (0.6 mg kg^–1 body weight) and treated daily for ∼21 days by intraperitoneal injection (i.p.). On the day of behavioral testing, injection was performed 1 h before the task began.
(§2) Ts65Dn male mice (8–16 weeks old) were tested after 1 week of treatment with vehicle or 40 (0.6 mg kg^–1 i.p.). The battery of tests was run over a total period of ∼14 days (four behavioral tests with the following order Open Field, NOR, T-maze, and CFC). […] The tasks were video-recorded and then analyzed manually by a blind operator.

NKCC2 [3] = target: T1, NKCC2; assay: Cl- influx assay in NKCC2-transfected HEK293 cells; type: cell-based; settings: 10 μM
Description: HEK293 cells were cultured in Dulbecco’s modified Eagle’s medium (DMEM) supplemented with 10% fetal bovine serum, 1% L-glutamine, 100 U/mL penicillin, and 100 μg/mL streptomycin and maintained at 37 °C in a 5% CO2 humidified atmosphere. […] To assess KCC2 activity (Tl influx assay), cells were transfected with 8 μg of KCC2[54] subcloned in the PRK5 plasmid or mock control (empty vector) and 16 μL of Lipofectamin 2000. After 4 h, the cells were collected and plated in 96-well black-walled, clear-bottomed plates at a density of 2.5 × 10^4. After 48 h, cells were used for the Cl^– or Tl influx assays. All reagents were purchased from Life Technologies, unless otherwise specified.
After 30 min of incubation, plates were loaded into a Victor 3V (PerkinElmer) multiplate reader equipped with an automatic liquid injector system, and fluorescence of Cl^–-sensitive mbYFPQS was recorded with excitation at 485 nm and emission at 535 nm. For each well, fluorescence was first recorded for 20 s of the baseline and for 60 s after delivery of a NaCl concentrated solution (74 mM final concentration in the assay well). Fluorescence of Cl^–-sensitive mbYFPQS is inversely correlated to the intracellular Cl^– concentration;[53] therefore, chloride influx into the cells determined a decrease in mbYFPQS fluorescence. […]

[4] = General health and body weight during chronic treatment; type: in vivo, mouse; settings: 3 weeks of daily treatment, ip 0.6 mg kg-1; WT and Ts65Dn mice
Description: as §1

Ts65Dn mice [5] = assay: Novel object recognition (NOR) test; type: in vivo, mouse; settings: ip 0.6 mg kg-1 daily, chronic (7-21 days)
Description: as §1, §2

Ts65Dn mice [6] = assay: T-maze test (short-term working memory); type: in vivo, mouse; settings: ip 0.6 mg kg-1 daily, chronic (7-21 days)
Description: as §1, §2

| SMILES | inhibition of NKCC2 in the Cl- influx assay (NKCC2 [1]) | associative memory in the CFC test (freezing response) (Ts65Dn mice [2]) | inhibition of NKCC2 in the Cl- influx assay (NKCC2 [3]) | animal body weight [4] | general health (daily hands-on examination) [4] | novel-discrimination ability in the NOR task (discrimination index) (Ts65Dn mice [5]) | short-term working memory in the T-maze test (number of correct choices) (Ts65Dn mice [6]) |
| --- | --- | --- | --- | --- | --- | --- | --- |
| CN(C)S(=O)(=O)c1cc(C(=O)O)ccc1NCCCCCCCC(F)(F)F [Compound 1, 3-(-N,N-Dimethylsulfamoyl)-4-(8,8,8-trifluorooctylamino)benzoic Acid] | did not show any significant inhibition |  |  |  |  |  |  |
| CN(C)S(=O)(=O)c1cc(C(=O)O)c(O)cc1NCCCCCCCC(F)(F)F [Compound 40, 5-(N,N-Dimethylsulfamoyl)-2-hydroxy-4-((8,8,8-trifluorooctyl)amino)benzoic Acid] |  | completely restored | did not show any significant inhibition | did not affect the animal body weight measures | did not affect the general health | completely rescued | fully restored |
